This is an account of results in US9149509B2, “Methods for improving neurological outcome after neural injury and neurodegenerative disease” (HENRY FORD HEALTH SYSTEM, priority 2009, dated 2015).

In assay [1] the test system is stroke (middle cerebral artery occlusion (MCAo)) rats. The experiment in a line: Embolic middle cerebral artery occlusion (MCAo) stroke model in rats. It is filed as in vivo, rat. On the procedure:
(§1) Effectiveness of treatment with thymosin β4 was tested in stroke (middle cerebral artery occlusion (MCAo)) rats and in experimental autoimmune encephalomyelitis (EAE) mice (a well-established in vivo model for multiple sclerosis). Both the stroke rats and the EAE mice were treated with 6 mg/kg thymosin β4 intraperitoneally (IP) in a volume of 0.3 mL twenty-four hours after stroke or after the day of immunization in the EAE model and then every three days (6 mg/kg IP) for four additional doses. An equal volume of saline was administered (IP) to a group of both stroke rats and EAE mice as a control. Bromodeoxyuridine (BrdU; 100 mg/kg) was administered (IP) daily for seven days, initiated 24 hours after MCAo to label proliferating cells. Behavioral tests (adhesive removable test and NSS (Neurological Severity Score)) were performed immediately before treatment and at days 1, 7, 14, 21, 28, 35, 42, 49, and 56 days after MCAo and up to 30 days in the EAE mouse model. All rats were sacrificed 56 days after MCAo; EAE mice were sacrificed at 30 days.

The subject of assay [2] is experimental autoimmune encephalomyelitis (EAE) mice. The assay can be described thus: Experimental autoimmune encephalomyelitis (EAE) mouse model of multiple sclerosis. It is filed as in vivo. As to conditions: 6 mg/kg IP, up to 30 days, vs saline control, p<0.01, FIG. 9. On the procedure:
as §1

The mark [3] stands for this setting: embolic stroke rats, 6 mg/kg IP, vs saline control.

As to thymosin β4, the “number of myelinated axons (Bielschowsky and Luxol Fast Blue staining)” value in assay [1] (after MCAo, treated vs control, p<0.05, FIG. 4) is listed as “increased”. In addition, the “cellular proliferation (BrdU expression, number of BrdU immunoreactive cells)” value in assay [1] (after MCAo, treated vs control, p<0.05, FIG. 8) is on record as “increased”. Besides, the “number of oligodendrocyte progenitors and matured oligodendrocytes” value in assay [1] (after MCAo, treated vs control, p<0.05, FIGS. 5-7) is given as “increased”. Besides, the “functional improvement in behavioral tests (adhesive removal test, NSS)” value in assay [1] (beginning at 21 days after stroke onset, 6 mg/kg IP, p<0.05, FIG. 1-2) is given as “Significant functional improvement”. In assay [1] (embolic stroke rats, 6 mg/kg IP 24 h after stroke, then every three days for four additional doses, sacrificed 56 days after MCAo), the “relative increase in BrdU expression in the striatum or myelinated region of the rat brain” value is given as 42%. In assay [1] (setting [3]), the “increase in CNP, a marker of mature oligodendrocytes” value is recorded as 11% and the “increase in NG-2, a marker of immature oligodendrocytes” value worked out at 47%. The functional neurological score result in assay [2] is “robust improvement”.
